Measurements reported in patent publication US11185521B2, “Substituted aromatic compounds and pharmaceutical compositions for the prevention and treatment of osteoporosis” (Liminal BioSciences Inc., priority 2014, dated 2021).
“Also recorded” adds a separate entry of the source.

Legend:
RAW264.7 cells [1] = assay: IL-12 production in LPS-stimulated RAW264.7 cells (IL-12 ELISA); format: cell-based, murine; settings: 100 ng/mL LPS, 21 hours
Protocol: RAW264.7 cells were cultured with 100 ng/mL of LPS in presence or absence of compounds for 21 hours in a humidified atmosphere of 95% air-5% carbon dioxide at 37° C. IL-12 concentration in the culture medium was measured using the IL-12 ELISA according to the manufacturer (BD Biosciences) recommendations. […] An in vitro IL-12 production assay was used for screening potential inhibitors of osteoclastogenesis.

[2] = system: ovariectomized (OVX) rats; assay: Ovariectomized (OVX) rat model of osteoporosis; format: in vivo, Sprague Dawley rats
Description: Although in comparison to humans, the skeletal mass of rats remains stable for a protracted period during their lifespan, rats can be ovariectomized to make them sex-hormone deficient, and to stimulate the accelerated loss of bone that occurs in women following menopause. Ovariectomy induces bone loss in the rat and postmenopausal bone loss share many similar characteristics. These include: increased rate of bone turnover with resorption exceeding formation; an initial rapid phase of bone loss followed by a much slower phase; greater loss of cancellous than cortical bone; decreased intestinal absorption of calcium; some protection against bone loss by obesity; and similar skeletal response to therapy with estrogen, tamoxifen, bisphosphonates, parathyroid hormone, calcitonin and exercise. These wide-ranging similarities are strong evidence that the ovariectomized rat bone loss model is suitable for studying problems that are relevant to postmenopausal bone loss. Sprague Dawley rats (250 g) were ovariectomized (OVX) at day 0. Rats were treated by oral gavage with Compound I (200 mg/kg) from day 14 to day 68. Evaluation of different parameters (body weight, calcium loss, osteoclast markers (RANKL and TRAP mRNA expression), collagen content and histology) was performed at day 68.

RAW264.7 cells [3] = assay: LPS-induced osteoclastogenesis in RAW264.7 cells, TRAP staining; format: cell-based, murine; settings: RAW264.7 cells differentiated with LPS (1 ug/ml), days 3-5 (FIG. 1)
Description: RAW264.7 cells are precursors of osteoclasts and can be differentiated by several factors including Receptor activator of NF-κB ligand (RANKL) or Lipopolysaccharide (LPS). Osteoclasts are characterized by high expression or tartrate resistant acid phosphatase (TRACP) and Matrix Metalloproteinase-9 (MMP-9) which can be used as markers for osteoclasts. […] The effect of selected compounds on TRAP (osteoclast marker) and IL-12 was undertaken in RAW264.7 cells, a murine osteoclast precursor cell line, in comparison with capric acid, as a positive control for reduction of osteoclastogenesis (Park et al. (2011) PLOS One Volume 6, Issue 11, 8 pages). RAW264.7 cells were differentiated by the incubation with LPS (1 ug/ml) in presence or not of capric acid or Compound I. On days 3-5, osteoclast formation was evaluated using tartrate-resistant acid phosphatase (TRAP) staining.

db/db mice = assay: Serum adiponectin level in uninephrectomized diabetic obese (db/db) mice; format: in vivo; settings: uninephrectomized db/db mice treated for 113 days (FIG. 9)
Protocol: To determine if selected compounds of this invention can affect serum adiponectin level, a model of diabetes type II/obesity was used. Briefly, db/db mice (6 weeks-old were uninephrectomized and treated with Compound XIV for 113 days (structure is shown in Table 1 hereinbefore). Serum adiponectin levels were determined with a mouse adiponectin enzyme-linked immunosorbant assay kit (R&D Systems).

RAW264.7 cells [4] = settings: cited from earlier work

Q: For `CCCCCc1cccc(C(F)C(=O)[O-])c1.[Na+]` (racemic) [Compound XIII, Sodium Salt of (RS)-2-Fluoro-2-(3-pentylphenyl)acetic Acid], which IL12 (RAW264.7 cells [1]; compound concentration 0.25 mM) is on record?
A: 17.6 pg/mL

Q: For `CCCCCc1cccc(CC(=O)[O-])c1.[Na+]` [Compound I, Sodium Salt of (3-pentylphenyl)acetic Acid], which IL12 (RAW264.7 cells [1]; compound concentration 0.50 mM) is on record?
A: 54.34 pg/mL

Q: And the “IL-12 production (in words)” value (RAW264.7 cells [1]; various concentrations (FIG. 2, Table 2))?
A: strong induction of IL-12 production

Q: And the “body weight / ovariectomized-induced obesity” value ([2]; oral gavage 200 mg/kg day 14 to day 68 (FIG. 3))?
A: reduced ovariectomized-induced obesity

Q: What about the “calcium loss in urine” value ([2]; oral gavage 200 mg/kg, day 28 to day 56 (FIG. 4)) of the same compound?
A: reduced significantly the calcium loss

Q: And the “acid phosphatase activity in serum” value ([2]; oral gavage 200 mg/kg, day 28 to day 56 (FIG. 5))?
A: reduces the acid phosphatase activity

Q: What about the “ratio of mRNA expression of RANKL/OPG in rat tibia” value ([2]; oral gavage 200 mg/kg, day 68 (FIG. 6)) of the same compound?
A: decreased

Q: What about the “collagen content in the metaphyse of the femur” value ([2]; oral gavage 200 mg/kg, day 68 (FIG. 7)) of the same compound?
A: increased the collagen content

Q: What about the “bone loss in the metaphysis of the femur, histology” value ([2]; oral gavage 200 mg/kg, day 68 (FIG. 8)) of the same compound?
A: reduced bone loss

Q: What about the “osteoclast formation, TRAP staining” value (RAW264.7 cells [3]) of the same compound?
A: no TRAP cells are observable

Q: For `CCCCCc1cccc(CCC(=O)[O-])c1.[Na+]` [Compound II, Sodium Salt of 3-(3-pentylphenyl)propionic Acid], which IL12 (RAW264.7 cells [1]; compound concentration 0.50 mM) is on record?
A: 350.65 pg/mL

Q: Which IL12 (RAW264.7 cells [1]; compound concentration 0.50 mM) does the source give for `CCCCc1cccc(CCC(=O)[O-])c1.[Na+]` [Compound III, Sodium Salt of 3-(3-butylphenyl)propionic Acid] here?
A: 62.28 pg/mL

Q: With `CCC/C=C/c1cccc(CC(=O)[O-])c1.[Na+]` [Compound IV, Sodium Salt of E-(3-pent-1-enyl-phenyl)acetic Acid] as the compound, how does the IL12 (RAW264.7 cells [1]; compound concentration 0.50 mM) read?
A: 19.31 pg/mL

Q: With `CCCCCc1cccc(CC(=O)[O-])c1O.[Na+]` [Compound IX, Sodium Salt of 2-(2-Hydroxy-3-pentylphenyl)acetic Acid] as the compound, how does the IL12 (RAW264.7 cells [1]; compound concentration 0.1 mM) read?
A: 12.57 pg/mL

Q: Which IL12 (RAW264.7 cells [1]; compound concentration 0.50 mM) does the source give for `CCCC/C=C/c1cccc(CC(=O)[O-])c1.[Na+]` [Compound V, Sodium Salt of 2-(3-(Hex-1-enyl]phenyl)acetic Acid] here?
A: 52.5 pg/mL

Q: Which IL12 (RAW264.7 cells [1]; compound concentration 0.25 mM) does the source give for `CCCCCCc1cccc(CC(=O)[O-])c1.[Na+]` [Compound VI, Sodium Salt of 2-(3-Hexylphenyl)acetic Acid] here?
A: 58.87 pg/mL

Q: With `CCCCCc1cc(O)cc(CC(=O)[O-])c1.[Na+]` [Compound VII, Sodium Salt of 3-hydroxy-5-pentylphenylacetic Acid] as the compound, how does the IL12 (RAW264.7 cells [1]; compound concentration 0.50 mM) read?
A: 16.6 pg/mL

Q: For `CCCCCc1cc(CC(=O)[O-])ccc1O.[Na+]` [Compound VIII, Sodium Salt of 2-(4-Hydroxy-3-pentylphenyl)acetic Acid], which IL12 (RAW264.7 cells [1]; compound concentration 0.50 mM) is on record?
A: 20 pg/mL

Q: With `CCCCCc1cc(F)cc(CC(=O)[O-])c1.[Na+]` [Compound X, Sodium Salt of 2-(3-fluoro-5-pentylphenyl)acetic Acid] as the compound, how does the IL12 (RAW264.7 cells [1]; compound concentration 0.50 mM) read?
A: 80 pg/mL

Q: For `CCCCCc1cccc(CC(=O)[O-])c1F.[Na+]` [Compound XI, Sodium Salt of 2-(2-Fluoro-3-pentylphenyl)acetic Acid], which IL12 (RAW264.7 cells [1]; compound concentration 0.25 mM) is on record?
A: 15 pg/mL

Q: For `CCCCCc1cc(CC(=O)[O-])ccc1F.[Na+]` [Compound XII, Sodium Salt of 2-(4-Fluoro-3-pentylphenyl)acetic Acid], which IL12 (RAW264.7 cells [1]; compound concentration 0.50 mM) is on record?
A: 419.6 pg/mL

Q: Which serum adiponectin level (db/db mice) does the source give for `CCCCCc1cc(CCCCC)cc(CC(=O)[O-])c1.[Na+]` [Compound XIV, Sodium 2-[3,5-Dipentylphenyl] Acetate] here?
A: increased the level of adiponectin to the level of the sham animals

Q: What about the melting point of the same compound?
A: 225 to 230 °C

Q: Which IL12 (RAW264.7 cells [1]; compound concentration 0.005 mM) does the source give for `CCCCCc1cc(CCCCC)c(O)c(CC(=O)[O-])c1.[Na+]` [Compound XVI, Sodium Salt of 2-(2-Hydroxy-3,5-dipentylphenyl)acetic Acid] here?
A: 15 pg/mL

Q: Which IL12 (RAW264.7 cells [1]; compound concentration 0.0025 mM) does the source give for `CCCCCc1cc(CCCCC)cc(CCC(=O)[O-])c1.[Na+]` [Compound XXIV, Sodium 3-[3,5-Dipentylphenyl]propanoate] here?
A: 79.9 pg/mL

Q: With `CCCCCCCCCC(=O)O` [capric acid] as the compound, how does the IL-12 production (RAW264.7 cells [4]; literature (Wang et al. 2006)) read?
A: increase in IL-12 production; also recorded: increases the production of IL-12

Q: What about the “phosphatase (TRAP)-positive cells” value (RAW264.7 cells [4]; literature (Wang et al. 2006)) of the same compound?
A: reduction of phosphatase (TRAP)-positive cells

Q: What about the “LPS-upregulated iNOS mRNA levels and nitric oxide (NO) production” value (RAW264.7 cells [4]; literature) of the same compound?
A: inhibited them

Q: What about the “monocyte chemoattractant protein-1 (MCP-1) mRNA expression” value (RAW264.7 cells [4]; literature) of the same compound?
A: inhibited monocyte chemoattractant protein-1 (MCP-1) mRNA expression

Q: What about the “osteoclast formation, TRAP staining” value (RAW264.7 cells [3]) of the same compound?
A: no TRAP cells are observable
